Test results: patent publication US11370774B2, “Substituted benzofuran, benzopyrrole, benzothiophene, and structurally related complement inhibitors” (BioCryst Pharmaceuticals, Inc., priority 2018, dated 2022)

target: Factor D (Homo sapiens (Human), UniProt P00746); test: Factor D esterolytic assay (Z-Lys-SBzl substrate, DTNB, 405 nm); assay type: biochemical; conditions: Z-Lys-SBzl 1.29 mM, pH 7.5, 10% DMSO, tested a minimum of three times, read-out: Measured Ki (IC50) Value for Compounds: IC50
Sequence (P00746 26-253): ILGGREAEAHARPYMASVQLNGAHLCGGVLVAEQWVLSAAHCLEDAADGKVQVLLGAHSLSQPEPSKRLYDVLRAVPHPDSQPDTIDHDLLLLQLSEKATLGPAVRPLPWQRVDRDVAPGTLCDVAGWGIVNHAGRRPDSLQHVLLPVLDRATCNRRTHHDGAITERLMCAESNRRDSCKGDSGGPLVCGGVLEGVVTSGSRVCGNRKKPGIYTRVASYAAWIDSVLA
Method in brief: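 Human Factor D ([…]) with 1.29 mM Z-Lys-SBzl in 100 mM HEPES, 500 mM NaCl, pH 7.5, 10% DMSO; substrate added immediately or after room-temperature preincubation. Released thiol reacted with DTNB, rate followed at 405 nm for 600 sec, 690 nm background subtracted. IC50 from percent inhibition versus uninhibited rate, n≥3.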

IC50 [µM]	SMILES
< 1	NCc1cccc(-c2cc(COc3cc(Br)ccc3CC(=O)O)cc3ccoc23)c1 [Compound 182d, 2-(2-((7-(3-(aminomethyl)phenyl)benzofuran-5-yl)methoxy)-4-bromophenyl)acetic acid]
> 10	Nc1ccc(-c2cc(COc3ccccc3CC(=O)O)cc3ccoc23)cc1 [Compound 183c, 2-(2-((7-(4-aminophenyl)benzofuran-5-yl)methoxy)phenyl)acetic acid]
1 to 10	Nc1cccc(-c2cc(COc3ccccc3CC(=O)O)cc3ccoc23)c1 [Compound 184c, 2-(2-((7-(3-aminophenyl)benzofuran-5-yl)methoxy)phenyl)acetic acid]
< 1	NCc1cc(-c2cc(COc3ccccc3CC(=O)O)cc3cc(CCO)oc23)ccn1 [Compound 185c, 2-(2-((7-(2-(aminomethyl)pyridin-4-yl)-2-(2-hydroxyethyl)benzofuran-5-yl)methoxy)phenyl)acetic acid]
< 1	CCCc1cc2cc(COc3ccccc3CC(=O)O)cc(-c3cccc(CN)c3)c2o1 [Compound 187f, 2-(2-((7-(3-(aminomethyl)phenyl)-2-propylbenzofuran-5-yl)methoxy)phenyl)acetic acid]
< 1	CCCc1cc2cc(COc3ccccc3CC(=O)O)cc(-c3cccc(CN)c3F)c2o1 [Compound 188b, 2-(2-((7-(3-(aminomethyl)-2-fluorophenyl)-2-propylbenzofuran-5-yl)methoxy)phenyl)acetic acid]
< 1	CCCc1cc2cc(COc3ccccc3CC(=O)O)cc(-c3ccnc(CN)c3)c2o1 [Compound 189c, 2-(2-((7-(2-(aminomethyl)pyridin-4-yl)-2-propylbenzofuran-5-yl)methoxy)phenyl)acetic acid]
< 1	CCCc1cc2cc(COc3ccccc3CC(=O)O)cc(-c3ccnc(CN)c3F)c2o1 [Compound 190c, 2-(2-((7-(2-(aminomethyl)-3-fluoropyridin-4-yl)-2-propylbenzofuran-5-yl)methoxy)phenyl)acetic acid]
< 1	Cc1noc2c(-c3cccc(CN)c3)cc(COc3ccccc3CC(=O)O)cc12 [Compound 191h, 2-(2-((7-(3-(aminomethyl)phenyl)-3-methylbenzo[d]isoxazol-5-yl)methoxy)phenyl)acetic acid]
< 1	CS(=O)(=O)n1ccc2c(-c3cccc(CN)c3)cc(COc3ccccc3CC(=O)O)cc21 [Compound 192e, 2-(2-((4-(3-(aminomethyl)phenyl)-1-(methylsulfonyl)-1H-indol-6-yl)methoxy)phenyl)acetic acid]
1 to 10	NCc1ccc(-c2cc(COc3ccccc3CC(=O)O)cc3ccoc23)cc1 [Compound 193c, 2-(2-((7-(4-(aminomethyl)phenyl)benzofuran-5-yl)methoxy)phenyl)acetic acid]
< 1	NCc1cccc(-c2cc(COc3ccccc3CC(=O)O)cc3cc(CNCC4CCCNC4)oc23)c1 (centres unmarked) [Compound 194d, 2-(2-((7-(3-(aminomethyl)phenyl)-2-(((piperidin-3-ylmethyl)amino)methyl)benzofuran-5-yl)methoxy)phenyl)acetic acid]
< 1	NCCCNCc1cc2cc(COc3ccccc3CC(=O)O)cc(-c3cccc(CN)c3)c2o1 [Compound 195d, 2-(2-((7-(3-(aminomethyl)phenyl)-2-(((3-aminopropyl)amino)methyl)benzofuran-5-yl)methoxy)phenyl)acetic acid]
< 1	NCCNCc1cc2cc(COc3ccccc3CC(=O)O)cc(-c3cccc(CN)c3)c2o1 [Compound 196d, 2-(2-((2-(((2-aminoethyl)amino)methyl)-7-(3-(aminomethyl)phenyl)benzofuran-5-yl)methoxy)phenyl)acetic acid]
< 1	NCc1cccc(-c2cc(COc3cc(N)ccc3CC(=O)O)cc3ccoc23)c1 [Compound 197c, 2-(4-amino-2-((7-(3-(aminomethyl)phenyl)benzofuran-5-yl)methoxy)phenyl)acetic acid]
< 1	CS(=O)(=O)n1ccc2c(-c3cccc(CN)c3F)cc(COc3ccccc3CC(=O)O)cc21 [Compound 198b, 2-(2-((4-(3-(aminomethyl)-2-fluorophenyl)-1-(methylsulfonyl)-1H-indol-6-yl)methoxy)phenyl)acetic acid]
< 1	NCc1cccc(-c2cc(COc3ccccc3CC(=O)O)cc3cc(C(F)(F)F)oc23)c1 [Compound 199f, 2-(2-((7-(3-(aminomethyl)phenyl)-2-(trifluoromethyl)benzofuran-5-yl)methoxy)phenyl)acetic acid]
< 1	CC(C)Cc1cc2cc(COc3ccccc3CC(=O)O)cc(-c3cccc(CN)c3F)c2o1 [Compound 200e, 2-(2-((7-(3-(aminomethyl)-2-fluorophenyl)-2-isobutylbenzofuran-5-yl)methoxy)phenyl)acetic acid]
< 1	CC(C)Cc1cc2cc(COc3ccccc3CC(=O)O)cc(-c3cccc(CN)c3)c2o1 [Compound 201b, 2-(2-((7-(3-(aminomethyl)phenyl)-2-isobutylbenzofuran-5-yl)methoxy)phenyl)acetic acid]

IC50 [µM]	SMILES
< 1	Cc1ccc(CC(=O)O)c(OCc2cc(-c3cccc(CN)c3)c3occc3c2)c1 [Compound 202c, 2-(2-((7-(3-(aminomethyl)phenyl)benzofuran-5-yl)methoxy)-4-methylphenyl)acetic acid]
< 1	NCc1cccc(-c2cc(COc3cc(C4CC4)ccc3CC(=O)O)cc3ccoc23)c1 [Compound 203c, 2-(2-((7-(3-(aminomethyl)phenyl)benzofuran-5-yl)methoxy)-4-cyclopropylphenyl)acetic acid]
> 10	Nc1ccc2c(-c3cc(COc4ccccc4CC(=O)O)cc4ccoc34)ncnn12 [Compound 204e, 2-(2-((7-(7-aminopyrrolo[2,1-f][1,2,4]triazin-4-yl)benzofuran-5-yl)methoxy)phenyl)acetic acid]
< 1	NCc1cccc(-c2cc(COc3ccc(F)cc3CC(=O)O)cc3ccoc23)c1 [Compound 205d, 2-(2-((7-(3-(aminomethyl)phenyl)benzofuran-5-yl)methoxy)-5-fluorophenyl)acetic acid]
< 1	NCc1ccc(-c2cc(COc3ccccc3CC(=O)O)cc3ccoc23)s1 [Compound 206c, 2-(2-((7-(5-(aminomethyl)thiophen-2-yl)benzofuran-5-yl)methoxy)phenyl)acetic acid]
< 1	NCc1ccc(-c2cc(COc3ccccc3CC(=O)O)cc3ccoc23)o1 [Compound 207c, 2-(2-((7-(5-(aminomethyl)furan-2-yl)benzofuran-5-yl)methoxy)phenyl)acetic acid]
< 1	NCc1cccc(-c2cc(COc3ccc(Br)cc3CC(=O)O)cc3ccoc23)c1 [Compound 208d, 2-(2-((7-(3-(aminomethyl)phenyl)benzofuran-5-yl)methoxy)-5-bromophenyl)acetic acid]
< 1	NCc1cccc(-c2cc(COc3ccc(N)cc3CC(=O)O)cc3ccoc23)c1 [Compound 209c, 2-(5-amino-2-((7-(3-(aminomethyl)phenyl)benzofuran-5-yl)methoxy)phenyl)acetic acid]
< 1	CN1CCC(N(C)Cc2cc3cc(COc4ccccc4CC(=O)O)cc(-c4cccc(CN)c4)c3o2)CC1 [Compound 210c, 2-(2-((7-(3-(aminomethyl)phenyl)-2-((methyl(1-methylpiperidin-4-yl)amino)methyl)benzofuran-5-yl)methoxy)phenyl)acetic acid]
< 1	CS(=O)(=O)n1ccc2c(-c3ccnc(CN)c3)cc(COc3ccccc3CC(=O)O)cc21 [Compound 211c, 2-(2-((4-(2-(aminomethyl)pyridin-4-yl)-1-(methylsulfonyl)-1H-indol-6-yl)methoxy)phenyl)acetic acid]
< 1	NCc1cc(-c2cc(COc3ccccc3CC(=O)O)cc3[nH]ccc23)ccn1 [Compound 211e, 2-(2-((4-(2-(aminomethyl)pyridin-4-yl)-1H-indol-6-yl)methoxy)phenyl)acetic acid]
< 1	NCc1cccc(-c2cc(COc3ccccc3CC(=O)O)cc3c2ccn3S(=O)(=O)C2CC2)c1 [Compound 212e, 2-(2-((4-(3-(aminomethyl)phenyl)-1-(cyclopropylsulfonyl)-1H-indol-6-yl)methoxy)phenyl)acetic acid]
< 1	NCc1cccc(-c2cc(COc3ccccc3CC(=O)O)cc3c2ccn3S(=O)(=O)C2CC2)c1F [Compound 213b, 2-(2-((4-(3-(aminomethyl)-2-fluorophenyl)-1-(cyclopropylsulfonyl)-1H-indol-6-yl)methoxy)phenyl)acetic acid]
< 1	NCc1cccc(-c2cc(COc3ccccc3CC(=O)O)cc3ccsc23)c1 [Compound 214f, 2-(2-((7-(3-(aminomethyl)phenyl)benzo[b]thiophen-5-yl)methoxy)phenyl)acetic acid]
< 1	NCc1cccc(-c2cc(COc3ccccc3CC(=O)O)cc3sc(Cl)cc23)c1 [Compound 215h, 2-(2-((4-(3-(aminomethyl)phenyl)-2-chlorobenzo[b]thiophen-6-yl)methoxy)phenyl)acetic acid]
> 10	NCc1cccc(-c2cc(NC(=O)c3ccccc3N)cc3ccoc23)c1 [Compound 216d, 2-amino-N-(7-(3-(aminomethyl)phenyl)benzofuran-5-yl)benzamide]
> 10	Cn1ccc2cc(COc3ccccc3CC(=O)O)cc(-c3cccc(CN)c3)c21 [Compound 218f, 2-(2-((7-(3-(aminomethyl)phenyl)-1-methyl-1H-indol-5-yl)methoxy)phenyl)acetic acid]
< 1	CC(C)Cc1cc2cc(COc3ccccc3CC(=O)O)cc(-c3ccnc(CN)c3)c2o1 [Compound 219c, 2-(2-((7-(2-(aminomethyl)pyridin-4-yl)-2-isobutylbenzofuran-5-yl)methoxy)phenyl)acetic acid]

SMILES	IC50 [µM]
NC(CF)c1cccc(-c2cc(COc3ccccc3CC(=O)O)cc3ccoc23)c1 (centres unmarked) [Compound 186c, 2-(2-((7-(3-(1-amino-2-fluoroethyl)phenyl)benzofuran-5-yl)methoxy)phenyl)acetic acid]	< 1
